Results from patent US20240300886A1, “ARYLCYCLOHEXYLAMINE DERIVATIVES AND THEIR USE IN THE TREATMENT OF PSYCHIATRIC DISORDERS” (GILGAMESH PHARMACEUTICALS, INC., priority 2021, published 2024).
Where two headings read alike, the source gives them in different places.

What was measured:
[1] = Metabolic stability in dog liver microsomes (DLM); type: in vitro ADME, beagle dogs; conditions: for half-life at 1 μM / microsomal CLint at 1 μM: male, beagle, dog, pooled dog liver microsomes, pH 7.4, 1 μM compound, 0.50 mg protein/mL, NADPH
Description: (§1) DLM Stability. Pooled DLM from male beagle dogs (XenoTech D1000) were used. Microsomal incubations were carried out in multi-well plates. Liver microsomal incubation medium consisted of PBS (100 mM, pH 7.4), MgCl2 (1 mM), and NADPH (1 mM), with 0.50 mg of liver microsomal protein per mL. Control incubations were performed by replacing the NADPH-cofactor system with PBS. Test compounds (1 μM, final solvent concentration 1.0%) were incubated with microsomes at 37° C. with constant shaking. Six time points over 60 minutes were analyzed, with 60 μL aliquots of the reaction mixture being drawn at each time point. The reaction aliquots were stopped by adding 180 μL of cold (4° C.) acetonitrile containing 200 ng/mL tolbutamide and 200 ng/mL labetalol as internal standards (TS), followed by shaking for 10 minutes, and then protein sedimentation by centrifugation at 4,000 rpm for 20 minutes at 4° C. Supernatant samples (80 μL) were diluted with water (240 μL) and analyzed for parent compound remaining using a fit-for-purpose liquid chromatography-tandem mass spectrometry (LC-MS/MS) method.
(§2) Data Analysis. The elimination constant (kel), half-life (t1/2) and intrinsic clearance (Clint) were determined in a plot of […] versus time, using linear regression analysis.

[2] = Metabolic stability in Gottingen minipig liver microsomes (MPLM); type: in vitro ADME, Gottingen minipigs; conditions: pooled minipig liver microsomes, pH 7.4, 1 μM compound, 0.50 mg protein/mL, NADPH
Description: as §1, with “MPLM” for “DLM”, “Gottingen minipigs (Xenotech Z6000)” for “male beagle dogs (XenoTech D1000)”, “mM” for “mM,”, “(IS),” for “(TS),”
as §2

[3] = Metabolic stability in cynomolgus monkey liver microsomes (CLM); type: in vitro ADME, cynomolgus monkeys; conditions: for half-life at 1 μM / microsomal CLint at 1 μM: male, cynomolgus monkey, pooled cynomolgus monkey liver microsomes, pH 7.4, 1 μM compound, 0.50 mg protein/mL, NADPH
Description: as §1, with “CLM” for “DLM”, “cynomolgus monkeys (Corning 452413)” for “beagle dogs (XenoTech D1000)”, “(IS),” for “(TS),”
as §2

[4] = Oral bioavailability in rats, Method B (plasma and brain PK); type: in vivo, Sprague Dawley rats; conditions: for half-life / Cmax / AUC(0-inf): male, Sprague Dawley; for half-life / Cmax / AUC(0-inf) / AUC0-inf (iv) / AUC0-inf (po) / F: Method B; for AUC(0-inf) / AUC0-inf (iv) / AUC0-inf (po): values represent AUC0-last; for F: 1 mg/kg
Description: Animals. Male Sprague Dawley rats were used in these studies. Animals were randomly assigned to treatment groups and were fasted for 4 h before dosing.
Drugs. Test compounds were dissolved in a vehicle consisting of normal saline (for compounds used as the HCl salt) or normal saline slightly acidified with aq. HCl (for freebase compounds). They were then administered intravenously (iv) or orally (po) at a dose of […] (calculated based on freebase), as indicated, and at a volume of 5 mL/kg body weight. Compounds were tested as the racemates or pure enantiomers, as indicated.
Sample Collection and Bioanalysis. Blood samples (approximately 60 μL) were collected under light isoflurane anesthesia (Surgivet®) from the retro orbital plexus at 0.08, 0.25, 0.5, 1, 2, 4, 8, and 24 h (4 animals per time point). Immediately after blood collection, plasma was harvested by centrifugation at 4,000 rpm for 10 min at 4° C. and samples were stored at −70±10° C. until bioanalysis. Following blood collection, animals were immediately sacrificed, the abdominal vena-cava was cut open, and the whole body was perfused from the heart using 10 mL of normal saline, and brain samples were collected from all animals. After isolation, brain samples were rinsed three times in ice-cold normal saline (for 5-10 seconds/rinse using ˜-5-10 mL normal saline in disposable petri dish for each rinse) and dried on blotting paper. Brain samples were homogenized using ice-cold phosphate-buffered saline (pH 7.4). Total homogenate volume was three times the tissue weight. All homogenates were stored at −70±10° C. until bioanalysis. For bioanalysis, 25 μL aliquots of plasma/brain study samples or spiked plasma/brain calibration standards were added to individual pre-labeled micro-centrifuge tubes followed by 100 μL of an internal standard solution (glipizide, 500 ng/mL in acetonitrile) except for blanks, where 100 μL of acetonitrile was added. Samples were vortexed for 5 minutes and then centrifuged for 10 minutes at 4,000 rpm at 4° C. Following centrifugation, 100 μL of each clear supernatant was transferred to a 96 well plate and analyzed with a fit-for-purpose LC-MS/MS method, with authentic samples of each analyte used for calibration and identification.
Data Analysis. Pharmacokinetic parameters were estimated using the non-compartmental analysis tool of Phoenix® WinNonlin software (Ver 8.0).

[5] = rat brain, 1 mg/kg iv, read-out: t1/2 (iv)
[6] = rat brain, 1 mg/kg po, read-out: t1/2 (po)
[7] = rat plasma, 1 mg/kg iv, read-out: t1/2 (iv)
[8] = rat plasma, 1 mg/kg iv, read-out: AUC0-inf (iv) (converted)
[9] = rat plasma, 1 mg/kg po, read-out: t1/2 (po)
[10] = rat plasma, 1 mg/kg po, read-out: AUC0-inf (po) (converted)
[11] = rat brain, calculated based on brain exposure (AUC0-last)

`CNC1(c2ccccc2Cl)CCCCC1=O` (racemic) [racemic ketamine, ketamine] gave a half-life at 1 μM [1] of 2.4 min, a microsomal CLint at 1 μM [1] of 589 µL/min/mg and a half-life at 1 μM [2] of 6.4 min. The microsomal CLint at 1 μM [2] was 218 µL/min/mg.
Work on `N[C@]1(c2ccc(F)cc2)CCCCC1=O` [Compound 1S, (S)-2-amino-2-(4-fluorophenyl)cyclohexan-1-one] yielded a half-life at 1 μM [1] greater than 145 min, a microsomal CLint at 1 μM [1] of less than 9.6 µL/min/mg and a half-life at 1 μM [3] greater than 145 min. The microsomal CLint at 1 μM [3] was less than 9.6 µL/min/mg, the half-life at 1 μM [2] was greater than 145 min and the microsomal CLint at 1 μM [2] was less than 9.6 µL/min/mg. The half-life [4, 5] was 245 min, the Cmax ([4]; rat brain, 1 mg/kg po) was 167 ng/g and the half-life [4, 6] was 427 min. For the same compound, the half-life [4, 7] was 155 min, the AUC(0-inf) [4, 8] was 805 ng·h/mL and the Cmax ([4]; rat plasma, 1 mg/kg po) was 234 ng/mL. The half-life [4, 9] was 233 min, the AUC(0-inf) [4, 10] was 1140 ng·h/mL and the “AUC0-inf (iv)” value ([4]; rat brain, 1 mg/kg iv) was 126462 ng·min/g. The “AUC0-inf (po)” value ([4]; rat brain, 1 mg/kg po) was 79272.6 ng·min/g, the F [4, 11] was 62.7% and the F ([4]; rat plasma, based on AUC0-last) was greater than 100%.
In the case of `CN[C@@]1(c2ccc(F)cc2)CCCCC1=O` [Compound 2R, (R)-2-(4-fluorophenyl)-2(methylamino)cyclohexan-1-one], the “stability in DLM (in words)” value [1] is reported as “substantially more stable”, the half-life at 1 μM [1] is reported as 38.7 min and the microsomal CLint at 1 μM [1] is reported as 35.8 µL/min/mg. For the same compound, the “stability in CLM (in words)” value [3] was “substantially more stable”, the half-life at 1 μM [3] was 62.3 min and the microsomal CLint at 1 μM [3] was 22.2 µL/min/mg. For the same compound, the half-life at 1 μM [2] was 38 min, the microsomal CLint at 1 μM [2] was 36.5 µL/min/mg and the half-life [4, 5] was 3.8 min. The Cmax ([4]; rat brain, 1 mg/kg po) was 42.8 ng/g, the half-life [4, 6] was 59.4 min and the half-life [4, 7] was 166 min. It also gave an AUC(0-inf) [4, 8] of 163 ng·h/mL, a Cmax ([4]; rat plasma, 1 mg/kg po) of 17.7 ng/mL and a half-life [4, 9] of 94.8 min. For the same compound, the AUC(0-inf) [4, 10] was 50.3 ng·h/mL, the “AUC0-inf (iv)” value ([4]; rat brain, 1 mg/kg iv) was 27152.4 ng·min/g and the “AUC0-inf (po)” value ([4]; rat brain, 1 mg/kg po) was 4915.8 ng·min/g. The F [4, 11] was 18.1%, the F ([4]; rat plasma, based on AUC0-last) was 31% and the “brain exposure after oral administration compared to enantiomer 2S” value ([4]; rats) was “substantially higher brain exposure”.
`CN[C@]1(c2ccc(F)cc2)CCCCC1=O` [Compound 2S, (S)-2-(4-fluorophenyl)-2-(methylamino)cyclohexan-1-one] showed a half-life at 1 μM [1] of 18.2 min, a microsomal CLint at 1 μM [1] of 76 µL/min/mg and a half-life at 1 μM [3] of 38.3 min. For the same compound, the microsomal CLint at 1 μM [3] was 36.1 µL/min/mg, the half-life at 1 μM [2] was 30.9 min and the microsomal CLint at 1 μM [2] was 44.9 µL/min/mg. The half-life [4, 5] was 42 min, the Cmax ([4]; rat brain, 1 mg/kg po) was 47.6 ng/g and the half-life [4, 7] was 42 min. The AUC(0-inf) [4, 8] was 186 ng·h/mL, the Cmax ([4]; rat plasma, 1 mg/kg po) was 32.3 ng/mL and the half-life [4, 9] was 87.6 min. The AUC(0-inf) [4, 10] was 37.8 ng·h/mL, the “AUC0-inf (iv)” value ([4]; rat brain, 1 mg/kg iv) was 68000.4 ng·min/g and the “AUC0-inf (po)” value ([4]; rat brain, 1 mg/kg po) was 3067.2 ng·min/g. For the same compound, the F [4, 11] was 4.5% and the F ([4]; rat plasma, based on AUC0-last) was 20%.
For `N[C@]1(c2cccc(F)c2)CCCCC1=O` [Compound 3S], the half-life at 1 μM [1] was 51.7 min, the microsomal CLint at 1 μM [1] was 26.8 µL/min/mg and the half-life at 1 μM [3] was 83.7 min. For the same compound, the microsomal CLint at 1 μM [3] was 16.6 µL/min/mg, the half-life at 1 μM [2] was greater than 145 min and the microsomal CLint at 1 μM [2] was less than 9.6 µL/min/mg.
